Data reported in patent US11130772B2, “CYP-eicosanoid derivatives” (MAX-DELBRUECK-CENTRUM FUER MOLEKULARE MEDIZIN, priority 2014, dated 2021).
“Also recorded” adds a separate entry of the source.

Test system: spontaneously beating neonatal rat cardiomyocytes (NRCMs)
Experiment: Chronotropic effect on spontaneously beating neonatal rat cardiomyocytes (in vitro cardiac arrhythmia model)
Assay type: cell-based, neonatal Wistar rats
Conditions: 30 nM final concentration, 5 min incubation
From the text: The activity of the n-3 PUFA analogues according to the invention can, for example, be determined in appropriate in vitro and/or in vivo assays. For instance, the biological activity of the n-3 PUFA analogues according to the present invention may be determined using the established cell model of Kang and Leaf (Proc Natl Acad Sci USA, 1994. 91(21): p. 9886-90.) known to those skilled in the art.
In order to measure the biological activities of the novel compounds an established cell model was used (Kang, J. X. and A. Leaf, Effects of long-chain polyunsaturated fatty acids on the contraction of neonatal rat cardiac myocytes. Proc Natl Acad Sci USA, 1994. 91(21): p. 9886-90.). The spontaneously beating neonatal rat cardiomyocytes (NRCMs) are a model system to investigate anti-arrhythmic effects of test-compounds.
Isolation and cultivation of NRCMs were performed as described previously (Wallukat, G; Wollenberger, A. Biomed Biochim Acta. 1987;78:634-639; Wallukat G, Homuth V, Fischer T, Lindschau C, Horstkamp B, Jupner A, Baur E, Nissen E, Vetter K, Neichel D, Dudenhausen J W, Haller H, Luft F C. J Clin Invest. 1999; 103: 945-952). Briefly, neonatal Wistar rats (1-2 days old) were killed in conformity to the recommendations of the Community of Health Service of the City of Berlin and the cardiomyocytes were dissociated from the minced ventricles with a 0.2% solution of crude trypsin. The isolated cells were then cultured as monolayers on the bottom (12.5 cm^2) of Falcon flasks in 2.5 ml of Halle SM 20-I medium equilibrated with humidified air. The medium contained 10% heat-inactivated FCS and 2 μmol/l fluoro-deoxyuridine (Serva, Heidelberg, Germany), the latter to prevent proliferation of non-muscle cells. The NRCMs (2.4×10^6 cells/flask) were cultured at 37° C. in an incubator. After 5 to 7 days, the NRCMs formed spontaneously beating cell clusters. […] On the day of the experiment, the culture medium was replaced by 2.0 ml fresh serum-containing medium. Two hours later, the beating rates were monitored at 37° C. using an inverted microscope equipped with a heating stage. To determine the basal rate, 6 to 8 individual clusters were selected and the number of contractions was counted for 15 sec. After that, the compound to be tested was added to the culture and the beating rate of the same clusters was monitored 5 min later again. Based on the difference between the basal and compound-induced beating rate of the individual clusters, the chronotropic effects (Δ beats/min) were calculated and are given as mean±SE values. N refers to the number of clusters monitored which originated, in general, from at least three independent NRCM cultures.
All compounds tested were added to the NRCMs at a final concentration of 30 nM and the measurement was performed after 5 min of incubation; except EPA that was used at a final concentration of 3.3 μM and the effect was monitored after 30 min of incubation.

CCC1OC1C/C=C\C/C=C\C/C=C\C/C=C\CCCC(=O)O (stereo not shown) [17,18-EEQ, 17,18-epoxyeicosatetraenoic acid, reference compound] was tested. Which “chronotropic effect on spontaneous beating rate (in words)” value (“chronotropic effect … (in words)” below) did it give?
The value was “negative chronotropic effect”.

How did the “chronotropic effect … (in words)” value turn out when CNC(=O)C(=O)NCCCC/C=C\CCCCCCCCCC1=NOS(=O)N1 (stereo not shown) [C38, N^1-methyl-N^2-(15-(2-oxido-3H-1,2,3,5-oxathiadiazol-4-yl)pentadec-5(Z)-en-1-yl)oxalamide] was run?
The value was “negative chronotropic effect”.

Which “chronotropic effect … (in words)” value does the source give for CNC(=O)C(=O)NCCCC/C=C\CCCCCCCCCP(=O)([O-])[O-].[Na+].[Na+] [C41, disodium 15-(2-(methylamino)-2-oxoacetamido)pentadec-10(Z)-enylphosphonate] here?
Its value is “negative chronotropic effect”.

For CNC(=O)C(=O)NCCCC/C=C\CCCCCCCCCS(=O)(=O)[O-].[Na+] [C42, Sodium 15-(2-(methylamino)-2-oxoacetamido)pentadec-10(Z)-en-1-sulfonate], which “chronotropic effect … (in words)” value is on record?
Its value is “negative chronotropic effect”.

With CNC(=O)C(=O)NCCCC/C=C\CCCCCCCCCSc1ccccc1O [C44, (Z)—N^1-(15-((2-hydroxyphenyl)thio)pentadec-5-en-1-yl)-N^2-methyloxalamide] as the molecule, how does the “chronotropic effect … (in words)” value read?
Its value is “lowest activity; also recorded: negative chronotropic effect”.

What about the “chronotropic effect (Δ beats/min), mean±SE” value (n=12 clusters) of the same molecule?
The value was −7.5±4.5 beats/min.

Which “chronotropic effect … (in words)” value does the source give for CNC(=O)C(=O)NCCCc1ccccc1CCCCCCP(=O)([O-])[O-].[Na+].[Na+] [C48] here?
The value was “negative chronotropic effects”.

With CNC(=O)C(=O)NCCCCc1ccccc1CCCCCCCCCP(=O)([O-])[O-].[Na+].[Na+] [C49] as the molecule, how does the “chronotropic effect … (in words)” value read?
Its value is “negative chronotropic effects”.

CNC(=O)C(=O)NCCCC/C=C\CCCCCCCCCC(=O)NS(=O)(=O)c1ccccc1 [C50, N^1-(16-phenylsulfonamido-16-oxohexadec-5(Z)-en-1-yl)-N^2-methyloxalamide] was tested. Which “chronotropic effect … (in words)” value did it give?
The value was “negative chronotropic effect”.

For “N^1-(15-((2-acetamidobenzo[d]thiazol-7-yl)oxy)pentadec-5(Z)-en-1-yl)-N^2-methyloxalamide [C43]”, which “chronotropic effect … (in words)” value is on record?
The value was “negative chronotropic effect”.
